Entries after “also recorded” stand apart in the source; their conditions may differ. Where two headings read alike, the source gives them in different places.
Columns and labels:
[1] = tested on: extracellular DA in the NACC; experiment: In vivo microdialysis: nicotine-induced increases in extracellular NACC DA; parameters: species or system rats
Excerpt: All animals were used under an IACUC-approved protocol and with strict adherence to the NIH guidelines. Adult male Sprague-Dawley rats (200-300 g, Taconic Farms), housed in the animals care facility under 12:12 light/dark conditions, were placed into 6 groups (n=5-9), anesthetized and siliconized guide cannulae were stereotactically implanted into the right NACC (2.0 mm anterior and 1.0 mm lateral to bregms, and 7.0 mm ventral to the cortical surface) at least 4 days prior to study. […] Animals were placed in bowls, and probes were inserted and flushed with ACSF overnight. On the day of the study, a minimum of three samples were injected to determine baseline stability. Samples were collected for 20 min. and injected on-line (CMA/160, BAS). The average Dopamine concentration of these three stable samples was defined as control (100%), and all subsequent treatment values were transformed to a percentage of that control. […] The high performance liquid chromatography (HPLC) system consists of a BAS reverse-phase column (3.0 μC-18), a BAS LC-4C electrochemical transducer with a dual/glassy carbon electrode set at 650 mV, a computer that analyzes data on-line using a commercial software package (Chromograph Bioanalytical Systems), and a dual pen chart recorder. The mobile phase (flow rate 1.0 ml/min) consisted of 7.0% methanol, 50 mM sodium phosphate monobasic, 1.0 mM sodium octyl sulfate, and 0.1 mm EDNA, pH 4.0. […] Upon completion of the study, animals were decapitated and frozen sections were obtained for probe placement verification.
The open circles are control animals.
In all studies, animals were placed in the microdialysis bowls the night before the experiment and artificial cerebrospinal fluid (ACSF) was perfused through the microdialysis probes at a flow rate of 2.0 μl/min. At the end of each study, animals were sacrificed and their brains were removed and sectioned for probe placement verification.

[2] = tested on: extracellular DA in the NACC; experiment: Microdialysis: methamphetamine-induced increases in NACC DA; type: in vivo, rats; details: Rattus norvegicus
Excerpt: All animals were used under an IACUC-approved protocol and with strict adherence to the NIH guidelines. Adult male Sprague-Dawley rats (200-300 g, Taconic Farms), housed in the animals care facility under 12:12 light/dark conditions, were placed into 6 groups (n=5-9), anesthetized and siliconized guide cannulae were stereotactically implanted into the right NACC (2.0 mm anterior and 1.0 mm lateral to bregms, and 7.0 mm ventral to the cortical surface) at least 4 days prior to study. Microdialysis probes (2.0 mm, Bioanalytical Systems, BAS, West Lafayette, Ind.) were positioned within the guide cannulae and artificial cerebrospinal fluid (ACSF, 155.0 mM NA^−, 1.1 mM Ca^2−, 2.9 mM K^−, 132.76 mM Cl^−, and 0.83 mM Mg^2−) was administered through the probe using a CMA/100 microinfusion pump (BAS) at a flow rate of 2.0 μl/min. Animals were placed in bowls, and probes were inserted and flushed with ACSF overnight. On the day of the study, a minimum of three samples were injected to determine baseline stability. Samples were collected for 20 min. and injected on-line (CMA/160, BAS). The average Dopamine concentration of these three stable samples was defined as control (100%), and all subsequent treatment values were transformed to a percentage of that control. […] The high performance liquid chromatography (HPLC) system consists of a BAS reverse-phase column (3.0 μC-18), a BAS LC-4C electrochemical transducer with a dual/glassy carbon electrode set at 650 mV, a computer that analyzes data on-line using a commercial software package (Chromograph Bioanalytical Systems), and a dual pen chart recorder. The mobile phase (flow rate 1.0 ml/min) consisted of 7.0% methanol, 50 mM sodium phosphate monobasic, 1.0 mM sodium octyl sulfate, and 0.1 mm […], pH 4.0. DA eluted at 7.5 min. Upon completion of the study, animals were decapitated and frozen sections were obtained for probe placement verification.
Methamphetamine at a dose of 1.25 mg/kg i.p. and 2.5 mg/kg i.p. was administered to the animals. It was noted that methamphetamine elevated extracellular DA concentrations in the NACC by approximately 2500% over basal levels, 100 minutes following administration of 2.5 mg/kg and approximately 1500% over basal levels following administration of 1.25 mg/kg (FIG. 6). DA returned to basal levels approximately 200 minutes following administration.

[3] = tested on: rhesus monkeys; details: cited from earlier work
[4] = tested on: male Sprague-Dawley rats; type: in vivo
Excerpt: In all rodent studies, male Sprague-Dawley rats were used (200-225 g, Taconic farms, Germantown, N.Y.). Animals were allowed to acclimate to the animal housing facility for at least 5 days prior to beginning the experiments. […] The conditioning procedure for the acquisition phase consisted of 12 sessions carried out consecutively over 12 days.
The animals in each group were randomly assigned to a 2×2 factorial design with one factor being the pairing chamber and the other factor being the order of conditioning. The animals that received either saline or cocaine were injected and confined to the appropriate compartment for 30 minutes.
[…] The amount of time spent in each chamber was recorded using an automated infrared beam electronically coupled to a timer.
In this example the procedure outlined in Section 2 of Materials and Methods was followed.

[5] = acquisition, 75 mg/kg GVG 2.5 hours prior to cocaine 20 mg/kg
[6] = acquisition, 75 mg/kg GVG/Saline pairing
[7] = acquisition, 112 mg/kg GVG 2.5 hours prior to cocaine 20 mg/kg
[8] = acquisition, 112 mg/kg GVG/Saline pairing
[9] = acquisition, 150 mg/kg GVG 2.5 hours prior to cocaine 20 mg/kg
[10] = acquisition, 150 mg/kg GVG/Saline pairing
[11] = acquisition, 300 mg/kg GVG 2.5 hours prior to cocaine 20 mg/kg
[12] = acquisition, 300 mg/kg GVG/Saline pairing
[13] = expression, Saline/Cocaine pairings, GVG 75 mg/kg on test day
[14] = expression, Saline/Cocaine pairings, GVG 112 mg/kg on test day
[15] = expression, Saline/Cocaine pairings, GVG 150 mg/kg on test day
[16] = expression, Saline/Cocaine pairings, GVG 300 mg/kg on test day
[17] = expression, Saline/Saline pairings, GVG 112 mg/kg on test day
[18] = expression, Saline/Saline pairings, GVG 150 mg/kg on test day
[19] = expression, Saline/Saline pairings, GVG 300 mg/kg on test day

Structure (SMILES): C=CC(N)CCC(=O)O (racemic) [GVG, 4-amino-5-hexanoic acid]
- basal DA levels prior to nicotine administration ([1]; GVG 75 mg/kg): no effect on basal DA levels
- effect on nicotine-induced increases in DA ([1]; GVG 75 mg/kg i.p. 2.5 hours before nicotine 0.4 mg/kg): no effect
- effect on nicotine-induced increases in DA ([1]; GVG 100 mg/kg i.p. 2.5 hours before nicotine 0.4 mg/kg): completely abolished; also recorded: completely blocked
- effect on nicotine-induced increases in DA ([1]; GVG 100 mg/kg i.p. 2.5 hours before nicotine 0.4 mg/kg, listed as vigabatrin): completely blocked
- effect on nicotine-induced increases in DA ([1]; GVG 150 mg/kg i.p. 2.5 hours before nicotine): blocks; also recorded: completely abolished
- basal DA levels prior to nicotine administration ([1]; GVG 90, 100 or 150 mg/kg): lowered basal DA levels
- inhibition at 90 mg/kg ([1]; Rattus norvegicus, ip, GVG 90 mg/kg i.p. 2.5 hours before nicotine 0.4 mg/kg): ~50%
- effect on nicotine-induced increases in extracellular DA ([1]; chronically nicotine treated, GVG 100 mg/kg 2.5 hours prior to nicotine): completely abolished
- nicotine-induced increase of extracellular DA above baseline ([1]; chronically nicotine treated, GVG 100 mg/kg 12 hours prior to challenge): approximately 25%
- inhibition at 300 mg/kg [2]: ~38%
- inhibition at 600 mg/kg [2]: ~58%
- withdrawal signs or symptoms ([3]; animals withdrawn from chronic GVG treatment): do not exhibit withdrawal signs or symptoms
- self-administration of GVG ([3]; rhesus monkeys): not self-administered
- acquisition and expression of cocaine-induced CPP ([4]; GVG 75 mg/kg, cocaine 20 mg/kg): not
- Time spent in chambers, Paired [4, 5]: 9.1 ± 1.1 min
- Time spent in chambers, Unpaired [4, 5]: 5.9 ± 1.2 min
- Time spent in chambers, Paired [4, 6]: 7.3 ± 0.5 min
- Time spent in chambers, Unpaired [4, 6]: 7.7 ± 0.6 min
- Time spent in chambers, Paired [4, 7]: 8.2 ± 0.5 min
- Time spent in chambers, Unpaired [4, 7]: 6.8 ± 0.5 min
- Time spent in chambers, Paired [4, 8]: 7.6 ± 0.6 min
- Time spent in chambers, Unpaired [4, 8]: 7.4 ± 0.6 min
- Time spent in chambers, Paired [4, 9]: 7.9 ± 0.8 min
- Time spent in chambers, Unpaired [4, 9]: 7.1 ± 0.8 min
- Time spent in chambers, Paired [4, 10]: 7.8 ± 0.6 min
- Time spent in chambers, Unpaired [4, 10]: 7.2 ± 0.6 min
- Time spent in chambers, Paired [4, 11]: 7.6 ± 0.7 min
- Time spent in chambers, Unpaired [4, 11]: 7.2 ± 0.7 min
- Time spent in chambers, Paired [4, 12]: 7.2 ± 0.4 min
- Time spent in chambers, Unpaired [4, 12]: 7.8 ± 0.4 min
- Time spent in chambers, Paired [4, 13]: 10.6 ± 0.6^3 min
- Time spent in chambers, Unpaired [4, 13]: 4.4 ± 0.9 min
- Time spent in chambers, Paired [4, 14]: 8.1 ± 0.7 min
- Time spent in chambers, Unpaired [4, 14]: 6.9 ± 0.6 min
- Time spent in chambers, Paired [4, 15]: 7.9 ± 0.3 min
- Time spent in chambers, Unpaired [4, 15]: 7.1 ± 0.3 min
- Time spent in chambers, Paired [4, 16]: 7.9 ± 0.5 min
- Time spent in chambers, Unpaired [4, 16]: 7.1 ± 0.6 min
- Time spent in chambers, Paired [4, 17]: 7.2 ± 0.3 min
- Time spent in chambers, Unpaired [4, 17]: 7.8 ± 0.3 min
- Time spent in chambers, Paired [4, 18]: 7.7 ± 0.2 min
- Time spent in chambers, Unpaired [4, 18]: 7.3 ± 1.1 min
- Time spent in chambers, Paired [4, 19]: 7.3 ± 0.4 min
- Time spent in chambers, Unpaired [4, 19]: 7.7 ± 0.3 min

Source: patent US6890951B2, “Treatment of addiction and addiction-related behavior” (Brookhaven Science Associates LLC, priority 1998, dated 2005)
